From article PMC9586283 (Proceedings of the National Academy of Sciences of the …, 2022)

Legend:
supercoiled DNA plasmid = assay type: biochemical
[1] = system: end-blocked, mispair-containing DNA; assay type: binding; settings: 20 nM Msh2-Msh6, 40 nM Mlh1-Pms1, 250 μM ATP, 25 °C, 20 μL/min, 236-bp DNA, Biacore T100
3′ AflIII CC substrate = experiment: Reconstituted Exo1- and Mlh1-Pms1-dependent MMR reaction in vitro; assay type: biochemical
Pms1 = experiment: Interaction of mutant Mlh1 with Pms1 during protein purification; assay type: binding, S. cerevisiae
wild-type Mlh1-Pms1 = experiment: Mlh1-Pms1 endonuclease assay; assay type: biochemical, S. cerevisiae; settings: 7.5 nM PCNA, 30 nM RFC-Δ1N, 35 nM Mlh1-Pms1, 1 mM MnSO4, 20 mM Tris (pH 7.5), 0.5 mM ATP, 100 ng supercoiled pRS425, 30 °C, 30 min, agarose gel

Row | Substance | nicking activity relative to wild-type Mlh1-Pms1 (supercoiled DNA plasmid; % of the nicking activity of the wild-type Mlh1-Pms1 protein, RFC-Δ1N and PCNA, ATP, 35 nM Mlh1-Pms1, 30 °C, 30 min, in triplicate) [%] | endonuclease activity (in words) (supercoiled DNA plasmid; in vitro, with PCNA, RFC-Δ1N and ATP) | recruitment by Msh2-Msh6, increase in response units [1] | MMR in vitro (in words) (3′ AflIII CC substrate) | ability to interact with Pms1 (Pms1) | Mlh1-Pms1 endonuclease activity (wild-type Mlh1-Pms1; peptide-to-heterodimer molar ratio of 250:1) [%] | Mlh1-Pms1 endonuclease activity (wild-type Mlh1-Pms1; peptide-to-heterodimer molar ratio of 1,000:1) [%]
1 | Mlh1(RADA)-Pms1 | ~10 | defective for MMR and endonuclease activity in vitro | robust increase in the response units | defective for MMR | did not observe any defects in the ability of Mlh1(RADA) to interact with Pms1 | – | –
2 | KAKRQENKLVRIDASQAKITSFLSS [wild-type peptide] | – | – | – | – | – | ~70 | ~50
3 | Mlh1-Pms1: wild-type S. cerevisiae Mlh1-Pms1 endonuclease heterodimer | – | – | robust increase in the response units | – | – | – | –
